Experimental data from patent US20110104121A1, “Female Reproductive Tract and Anal Prophylaxes” (priority 2008, published 2011).

Columns and labels:
[1] = system: Monocytes-derived Dendritic cells (MDDCs); assay: surface receptor expression on monocyte-derived dendritic cells, flow cytometry; type: cell-based, human
Description: Materials and Methods. Uterine epithelial cell line (ECC-1) was cultured according to established methods to establish cellular polarity with apical and basolateral compartments (Schaefer, et al. (2004) Immunology 112:428-436). The formation of tight junctions by the epithelial cell monolayer was routinely monitored by measurement of transepithelial resistance (TER) (Richardson, et al. (1995) Biol. Reprod. 53:488-498). […] The pooled media was centrifuged for 5 minutes at 10,000 g and stored at −80° C. for use in subsequent studies.
Peripheral blood mononuclear cells (PBMC) were obtained from residues of platelet pheresis according to known methods (Dietz, et al. (2006) Transfusion 46:2083-2089). Monocytes were subsequently enriched with Rosette Sep reagent (StemCell, Vancouver, BC). Blood specimens were from healthy adult males. Monocytes-derived Dendritic cells (MDDCs) were in vitro generated with GM-CSF (50 ng/ml) and IL-4 (50 ng/ml) (PeproTech Inc, Rocky Hill, N.J.) (Sallusto Lanzavecchia (1994) J. Exp. Med. 179:1109-1118). MDDCs were differentiated for 7 days in the presence or absence of 24-hour conditioned medium (1:1 dilution) obtained from ECC-1. In some experiments TGF-beta receptor 1 blocker, SB431542 (10 μM; Tocris Cookson, Inc., St. Louis, Mo.) (Eriksson, et al. (2006) Am. J. Reprod. Immunol. 56:321-328; Shen, et al. (2007) Clin. Exp. Immunol. 149(1):155-61) was simultaneously added with ECC-1 CM for the entire duration of the differentiation. As positive control for TGF-beta effects on MDDCs, experimental conditions were included in which MDDCs were differentiated with recombinant human TGF-beta1 at three different concentrations (0.1, 1 and 10 ng/mL) in the presence or absence of SB431542. Following 7 days of culture, cells were harvested, washed and subsequently used for flow cytometry analyses.
Following six days of in vitro differentiation, surface staining of MDDCs was performed with the following fluorochrome-labeled monoclonal antibodies: CD1a (HI149), CD14 (61D3), from Ebioscience (San Diego, Calif.); and CD163 (215927), CCR5 (45531), CXCR4 (12G5), DC-SIGN (120507) from R&D Systems (Minneapolis, Minn.). Matched isotype controls for the antibodies were used to control for non-specific binding. Following antibody staining, cells were washed with staining buffer and fixed with 2% methanol-free paraformaldehyde in 1×PBS (2% PFA), followed by analysis with a Becton Dickinson FACS CALIBUR (San Jose, Calif.). The acquired FACS data were analyzed by CELL QUEST (BD Biosciences).
Statistical analysis was performed using two-way analysis of variance (ANOVA) ([…] Prism Version 5.0; […] Software Inc., San Diego, Calif.). A value of P<0.05 was considered significant.

[2] = system: uterine stromal fibroblasts; assay: HGF secretion by uterine stromal fibroblasts, ELISA; type: cell-based, human
Description: (§1) Materials and Methods. FRT mucosal tissue was obtained following surgery from women who underwent hysterectomies. Tissues used in this study were distal to the sites of pathology and were determined to be unaffected by disease upon inspection by a trained pathologist. Tissues were transported from Pathology and procedures to isolate stromal fibroblasts began within 2 hours of surgery.
Tissues from the Fallopian tube, uterus, cervix, and ectocervix were dispersed into epithelial and stromal cell fractions by enzymatic digestion (Fahey, et al. (1998) Immunol. Invest. 27:167-180; Meter, et al. (2005) Fertil. Steril. 84:191-201). Briefly, tissues were minced under sterile conditions into 1-2 mm fragments and then digested at 37° C. for 1 hour using a “PHC” enzyme mixture that contained final concentrations of 3.4 mg/ml pancreatin (Gibco Life Technologies, Rockville, Md.), 0.1 mg/ml hyaluronidase (Worthington Biochemical Corporation, Freehold, N.J.), 1.6 mg/ml collagenase (Worthington) and 2 mg/ml D-glucose (Sigma, St Louis, Mo.) in Hank's balanced salt solution (Gibco, Invitrogen). This procedure was chosen to maximize digestion of the extracellular matrix, as verified by microscopy and by hematoxylin and eosin staining of frozen sections after digestion, while minimizing digestion of cell surface antigens as determined by flow cytometry. After incubating in this enzyme cocktail, cells and tissue fragments were collected, washed with complete media consisting of DMEM/F-12 without phenol red (Gibco) supplemented with 10% heat-inactivated fetal calf serum (Hyclone, Logan, Utah), 2 mM fresh L-glutamine, 25 mM HEPES, […] primocin (InvivoGen, San Diego, Calif.) and separated from tissue aggregates by sedimentation for 5 minutes. Medium containing predominantly single cells and small epithelial cell glands were removed and dispersed through a 250 μm nylon mesh screen (Small Parts, Miami Lake, Fla.). […]
(§2) Stromal cell fractions were washed, resuspended in complete media, and cultured in T75 flasks. […] When confluent, the cells in the flask were counted and sub-cultured into 24 well culture plates (Fisher Scientific, Pittsburgh, Pa.). […]
Once the cells reached confluence, they were cultured in complete media with 10% stripped FBS (Hyclone). […] In related experiments, when cell proliferation was analyzed, harvested from culture wells and counted by Coulter Counter. […] Viability of the cultures was determined using trypan blue dye exclusion and manual counting of live vs. dead cells on a hemocytometer. […]

female macrophages = assay: LPS-induced TNFalpha secretion by female macrophages; type: cell-based
[3] = system: primary uterine epithelial cells; assay: MIP3 alpha secretion by primary uterine epithelial cells, ELISA; type: cell-based, mice; conditions: 20 hours, 37° C., vs media control
Description: FIG. 1 depicts levels of MIP3 alpha secretion by primary uterine epithelial cells at 20 hours after exposure to estrogen, ICI […] or the SERMs indicated. P value is comparison to media control.
Indeed, FIG. 1 summarizes the effects of estradiol (estrogen) and four known SERMS on the secretion of MIP3 alpha (aka CCL20), a known potent endogenous antimicrobial peptide, by primary uterine epithelial cells in culture. Epithelial cells were isolated from the uteri of intact mice by enzymatic digestion prior to incubation at 37° C. in the presence or absence of known SERMS for 20 hours. Following incubation in 96-well plates, media was collected and assayed by ELISA for MIP3 alpha.

[4] = system: cervix stromal fibroblasts; assay: HGF secretion by cervix stromal fibroblasts, ELISA; type: cell-based, human; conditions: estradiol
Description: as §1
(§3) Tissues from the Fallopian tube, uterus, cervix, and ectocervix were dispersed into epithelial and stromal cell fractions by enzymatic digestion (Fahey, et al. (1998) Immunol. Invest. 27:167-180; Meter, et al. (2005) Fertil. Steril. 84:191-201). […] This procedure was chosen to maximize digestion of the extracellular matrix, as verified by microscopy and by hematoxylin and eosin staining of frozen sections after digestion, while minimizing digestion of cell surface antigens as determined by flow cytometry. […]
as §2
(§4) Once the cells reached confluence, they were cultured in complete media with 10% stripped FBS (Hyclone). […] In related experiments, when cell proliferation was analyzed, harvested from culture wells and counted by Coulter Counter. […]

[5] = system: ectocervix stromal fibroblasts; assay: HGF secretion by ectocervix stromal fibroblasts, ELISA; type: cell-based, human; conditions: estradiol
Description: as §1, §3, §2, §4

uterine cells = assay: relative mRNA expression of SLPI and defensins in uterine cells; type: cell-based; conditions: for relative uterine alpha defensin 2 expression: saline control ~0.2×10^5; for relative beta defensin 4 mRNA expression in uterine cells: saline control ~0.4×10^5
Description: (§5) The analysis of SERM activity is carried out using fresh hysterectomy tissues, wherein epithelial cells, neutrophils, NK cells and macrophage/dendritic cells (MAC/DC), which are known to be responsive in culture to sex hormones, are recovered. Using conventional assays, SERMs (e.g., Tamoxifen, bazedoxifene acetate, lasofoxifene and raloxifene, etc) are analyzed for their ability to regulate immunological endpoints which have been identified as optimal for protection against HIV. […] Similarly, ICI 182,780 increased relative vaginal SLPI mRNA levels by 26-fold over saline controls. Furthermore, ICI 182,780, tamoxifen, and Y134 increased relative uterine alpha defensin 2 expression (˜3×10^5, ˜4×10^5, and −1.2×10^6, respectively) compared to ˜0.2×10^5 in the saline control. ICI 182,780, Y134, and PHTPP were also found to increase relative vaginal alpha defensin 2 expression (˜2.4×10^5, ˜4×10^5, and ˜1.6×10^5, respectively) compared to −7.5×10^4 in the saline control.

vaginal cells = assay: relative mRNA expression of SLPI and defensins in vaginal cells; type: cell-based; conditions: for relative vaginal alpha defensin 2 expression: saline control printed −7.5×10^4; for relative mRNA expression of beta defensin 1 in vaginal cells: saline control ~1.1×10^8
Description: as §5

[6] = system: primary uterine epithelial cells; assay: mouse KC (IL8) secretion from primary uterine epithelial cells; type: cell-based; conditions: 24-hour treatment
CCR5-tropic HIV = conditions: in vitro; read-out: 50% inhibitory concentration, CCR5-tropic HIV infectivity; cited from earlier work
[7] = Table 4, control vehicle, N = 3
[8] = Table 5, control vehicle, N = 3

| Molecule | TNFalpha (% of Control) (female macrophages; [7]) | TNFalpha (% of Control) (female macrophages; [8]) | MIP3 alpha secretion [3] | increase in relative uterine SLPI mRNA levels over saline controls (uterine cells) | relative uterine alpha defensin 2 expression (uterine cells) | relative mRNA expression of beta defensin 2 in vaginal cells (vaginal cells) | relative vaginal alpha defensin 2 expression (vaginal cells) | relative mRNA expression of beta defensin 1 in vaginal cells (vaginal cells) | secretion of mouse KC (IL8) [6] | relative beta defensin 4 mRNA expression in uterine cells (uterine cells) | further results |
| --- | --- | --- | --- | --- | --- | --- | --- | --- | --- | --- | --- |
| C[C@]12CC[C@@H]3c4ccc(O)cc4CC[C@H]3[C@@H]1CC[C@@H]2O [E2, 17β-estradiol] | 73.96 ± 3.00 % of Control | 73.96 ± 3.00 % of Control | no effect |  |  |  |  |  |  |  | DC-SIGN expression on immature DCs [1]: increases; uterine stromal fibroblast HGF secretion ([2]; 10^−7 M or 10^−8 M estradiol, within 48 hours): significantly increased; estradiol response of HGF at 24 hours, responding patients ([2]; 24 hours after addition of estradiol): two out of five patients; cell numbers, control vs estradiol-treated wells ([2]; counted at 48-hour intervals): did not differ; HGF secretion, six days vs two days of exposure ([2]; estradiol 2, 4, 6 days, CM collected at 48 hour intervals): three times more HGF; TNFalpha (% of Control) (female macrophages; E2 0.001 nM, control no E2, N = 4): 98.35 ± 3.19 % of Control; TNFalpha (% of Control) (female macrophages; E2 0.01 nM, control no E2, N = 4): 97.72 ± 6.89 % of Control; TNFalpha (% of Control) (female macrophages; E2 0.1 nM, control no E2, N = 4): 94.68 ± 11.62 % of Control; HGF secretion by cervix stromal fibroblasts [4]: did not increase; secretion of HGF from ectocervix stromal fibroblasts [5]: no effect |
| C[C@]12CC[C@@H]3c4ccc(O)cc4C[C@@H](CCCCCCCCC[S+]([O-])CCCC(F)(F)C(F)(F)F)[C@H]3[C@@H]1CC[C@@H]2O (stereo partly shown) [ICI 182,780] | 111.87 ± 15.68 % of Control |  | significantly increased | ~3×10^5 | ~3×10^5 | not significantly affected | ~2.4×10^5 | ~2.15×10^8 | significantly increased |  | increase in relative vaginal SLPI mRNA levels over saline controls (vaginal cells): 26 fold |
| Oc1ccc(-c2c(-c3ccccc3)nn3c(C(F)(F)F)cc(C(F)(F)F)nc23)cc1 [PHTPP] |  | 79.96 ± 6.43 % of Control | marginal effect | ~8×10^5 |  | not significantly affected | ~1.6×10^5 |  | marginal effect | ~8×10^5 | relative mRNA expression of beta defensin 2 in uterine cells (uterine cells; saline control ~1×10^5): ~1.55×10^8; relative mRNA expression of beta defensin 1 in uterine cells (uterine cells; saline control ~1.1×10^6): ~1.05×10^8 |
| CC/C(=C(\c1ccccc1)c1ccc(OCCN(C)C)cc1)c1ccccc1 [tamoxifen] |  |  | marginal effect | ~2.5×10^5 | ~4×10^5 | not significantly affected |  | ~1.75×10^8 | marginal effect | ~6×10^5 | relative beta defensin 4 mRNA expression in vaginal cells (vaginal cells; saline control ~1×10^7): ~2.1×10^8 |
| Lactobacillus-derived CV-N: HIV inhibitor Cyanovirin-N produced by engineered vaginal Lactobacillus (protein, UniProt P81180 1-101, looked up, produced in engineered Lactobacillus) Cyanovirin-N: LGKFSQTCYNSAIQGSVLTSTCERTNGGYNTSSIDLNSVIENVDGSLKWQPSNFIETCRNTQLAGSSELAAECKTRAQQFVSTKINLDDHIANIDGTLKYE |  |  |  |  |  |  |  |  |  |  | IC50 (CCR5-tropic HIV): 0.3 nM |
